# Tested on: H1650 lung cancer cells
# Assay: Cell viability assay (MTT), H1650 lung cancer cells
# Format: cell-based
# Settings: Homo sapiens, NCI-H1650; for GI50: H1650 cells; for IC50: H1650 lung cancer cells, 48 h drug treatment, MTT
# Experimental: Cell Viability Assays (IC50 Determination)
# Cell viability assays were performed according to Denizot, F. and R. Lang, Journal of Immunological Methods, 1986. 89(22): p. 271-277. H1650 lung cancer cells were plated at 150,000 cells per well in a 12 well plate. Twenty-four hours after plating, cells were treated as described with increasing concentrations of drug and control. Forty-eight hours after drug treatment, cells were treated with 100 μL of 3-(4,5-Dimethylthiazol-2-yl)-2,5-diphenyltetrazolium bromide (MTT) and incubated for 2 hours at 37 C. The MTT solution was subsequently replaced with 300 μL of n-propyl alcohol and re-aliquoted to a 96 well plate. Spectrophotometric analysis of each solution was performed using a 96 well plate reader at 600 nm in triplicate.
Compound,GI50,IC50
O=S(=O)(N[C@@H]1CCCC(N2c3ccccc3Oc3ccccc32)[C@H]1O)c1ccc(CC(F)(F)F)cc1 (mixture of isomers) [Example 18],15 µM,–
"COc1ccc(S(=O)(=O)N[C@@H]2CCCC(n3c4ccccc4c4ccccc43)[C@H]2O)cc1 (relative stereo) [Example 6, N-((1S,2S,3R)-rel-3-(9H-carbazol-9-yl)-2-hydroxycyclohexyl)-4-methoxybenzenesulfonamide]",20 µM,20 µM
"O=S(=O)(N[C@@H]1CCCC(N2c3ccccc3COc3ccccc32)[C@H]1O)c1ccc(OC(F)(F)F)cc1 (mixture of isomers) [Example 2, N-((1R,2R,3S)-rel-3-(dibenzo[b,e][1,4]oxazepin-5(11H)-yl)-2-hydroxycyclohexyl)-4-(trifluoromethoxy)benzenesulfonamide]",20 µM,20 µM
"O=S(=O)(N[C@@H]1CCCC(n2c3ccccc3c3ccccc32)[C@H]1O)c1ccc(Cl)cc1 (relative stereo) [Example 4, N-((1S,2S,3R)-rel-3-(9H-carbazol-9-yl)-2-hydroxycyclohexyl)-4-chlorobenzenesulfonamide]",15 µM,15 µM
"CN1C(=O)c2ccccc2N(C2CCC[C@@H](NS(=O)(=O)c3ccc(OC(F)(F)F)cc3)[C@@H]2O)c2ccccc21 (relative stereo) [Example 8, 4-Trifluoromethoxy-N-((1S,2S,3R)-rel-2-hydroxy-3-(10-methyl-11-oxo-10,11-dihydro-5H-dibenzo[b,e][1,4]diazepin-5-yl)cyclohexyl)benzenesulfonamide]",15 µM,15 µM
O=S(=O)(N[C@@H]1CCCC(N2c3ccccc3Oc3ccccc32)[C@H]1O)c1ccc(OC(F)(F)F)c(Cl)c1 (mixture of isomers) [Example 21],15 µM,–
N#Cc1ccc2c(c1)c1ccccc1n2C1CCC[C@@H](NS(=O)(=O)c2ccc(OC(F)(F)F)cc2)[C@@H]1O (mixture of isomers) [Example 28],10 µM,–
O=S(=O)(N[C@@H]1CCCC(N2c3ccccc3Oc3ccccc32)[C@H]1O)c1ccc(OC(F)F)cc1 (mixture of isomers) [Example 20],25 µM,–
O=S(=O)(N[C@@H]1CCCC(N2c3ccccc3Oc3ccccc32)[C@H]1O)c1ccc(C(F)(F)C(F)(F)F)cc1 (mixture of isomers) [Example 19],10 µM,–
"CN1C(=O)c2ccccc2N(C2CCC[C@@H](NS(=O)(=O)c3ccc(Cl)cc3)[C@@H]2O)c2ccccc21 (relative stereo) [Example 9, 4-Chloro-N-((1S,2S,3R)-rel-2-hydroxy-3-(10-methyl-11-oxo-10,11-dihydro-5H-dibenzo[b,e][1,4]diazepin-5-yl)cyclohexyl)benzenesulfonamide]",25 µM,25 µM

# Second part, the molecule after the results:
GI50,IC50,Compound
5 µM,–,"O=S(=O)(N[C@H]1CCC[C@@H](n2c3ccc(F)cc3c3cc(F)ccc32)[C@@H]1O)c1ccc(OC(F)(F)F)cc1 [Example 32a, N-((1S,2S,3R)-3-(3,6-difluoro-9H-carbazol-9-yl)-2-hydroxycyclohexyl)-4-(trifluoromethoxy)benzenesulfonamide]"
5 µM,–,N#Cc1ccc2c(c1)c1cc(Br)ccc1n2C1CCC[C@@H](NS(=O)(=O)c2ccc(OC(F)(F)F)cc2)[C@@H]1O (mixture of isomers) [Example 27]
5 µM,–,O=S(=O)(N[C@@H]1CCCC(n2c3ccc(Cl)cc3c3cc(Cl)ccc32)[C@H]1O)c1ccc(OC(F)(F)F)cc1 (mixture of isomers) [Example 22]
5 µM,–,O=S(=O)(N[C@@H]1CCCC(n2c3ccccc3c3cc(Br)ccc32)[C@H]1O)c1ccc(OC(F)(F)F)cc1 (mixture of isomers) [Example 30]
5 µM,–,O=S(=O)(N[C@@H]1CCC[C@H](n2c3ccc(F)cc3c3cc(F)ccc32)[C@H]1O)c1ccc(OC(F)(F)F)cc1 [Example 32b]
5 µM,–,"O=S(=O)(N[C@H]1CCC[C@@H](n2c3ccccc3c3cc(F)ccc32)[C@@H]1O)c1ccc(OC(F)(F)F)cc1 (stereo in doubt) [Example 31b, N-((1S,2S,3R)-3-(3-fluoro-9H-carbazol-9-yl)-2-hydroxycyclohexyl)-4-(trifluoromethoxy)benzenesulfonamide]"
